# Source: patent US4241053A, “Novel nitrosourea compounds and process for preparing the same” (Tanabe Seiyaku Co., Ltd., priority 1978, dated 1980)
# Assays:
# [1] = Preventive effect against the growth of Ehrlich ascites tumor (Method A); assay type: in vivo, mice (female ICR); conditions: mouse, in vivo, ip; maximum dose with 100% inhibition of Ehrlich ascites tumor without causing death; unit from dose column; read-out: MTD (Maximum Tolerated Dose)
# Experimental: (§1) (A) Preventive effect against the growth of Ehrlich ascites tumor:
# (§2) 10^6 tumor cells of Ehrlich ascites carcinoma were inoculated intraperitoneally into a group of five femal mice (ICR mice, body weight: 19-23 g). A test compound was dissolved in a physiological saline solution [In the case where CCNU was employed as the test compound, said compound was suspended in a physiological saline solution containing 0.1% NIKKOL HCO-60 (trademark; a surface active agent manufactured by Nikko Chemicals Co. Ltd.)] and administered intraperioneally to the mice. The administration of the test compound was begun 24 hours after the inoculation of the tumor cells and performed once a day for 5 days. The volume of ascites in the treated mice were measured after 7 days of the experiment.
# (§3) ^a T = the average volume of ascites in the treated mice
# (§4) C = the average volume of ascites in the untreated mice (control group of
# (§5) 100% inhibition for the growth of Ehrlich ascites tumor in mice without
# (§6) causing the death of said mice)
# (§7) 100% inhibition for the growth of said ascites tumor)
# (§8) ^e Therapeutic index = MTD/MED
# (§9) *the number of mice died/the number of mice used
# [2] = test system: Ehrlich ascites carcinoma; test: as above; assay type: in vivo, mice (female ICR); conditions: for inhibition in vivo at 0.19 mg/kg: 0.19 mg/kg/day i.p.; for inhibition in vivo at 0.39 mg/kg: 0.39 mg/kg/day i.p.; for inhibition in vivo at 0.78 mg/kg: 0.78 mg/kg/day i.p.; for inhibition in vivo at 1.56 mg/kg: 1.56 mg/kg/day i.p.; for inhibition in vivo at 6.25 mg/kg: 6.25 mg/kg/day i.p.; for minimal effective dose: minimum dose with 100% inhibition of ascites tumor, unit from dose column, read-out: MED (Minimum Effective Dose); for inhibition in vivo at 3.12 mg/kg: 3.12 mg/kg/day i.p.
# Experimental: as §1, §2, §3, §4, §5, §6, §7, §8, §9
# Leukemia L-1210 = test: Effect on the life span of mice implanted with leukemic cells of L-1210 (Method B); assay type: in vivo, mice (male BDF1); conditions: Mus musculus, L1210, ip, once a day for 5 days; for ILS at 12.5 mg/kg / responders at 12.5 mg/kg: 12.5 mg/kg/day i.p.; for ILS at 25 mg/kg / responders at 25 mg/kg: 25 mg/kg/day i.p.; for ILS at 50 mg/kg / responders at 50 mg/kg: 50 mg/kg/day i.p.
# Experimental: (B) Effect on the life span of mice implanted with leukemic cells of L-1210:
# 10^5 leukemic cells of L-1210 were inoculated intraperitoneally into a group of four or six male mice (BDF1 mice, body weight: 19-23 g). A test compound was dissolved in a physiological saline solution and administered intraperitoneally to the mice. The administration of the test compound was begun 24 hours after the inoculation of the leukemic cells and performed once a day for 5 days. The survival days of the treated mice were observed.
# ^a T = the mean survival days of the treated mice
# C = the mean survival days of the untreated mice (control group of mice)
# ^b ILS(Increase in Life Span) =-
# ^c 60day survivors = the number of mice survived for 60 days/the
# lymphoid leukemia L-1210 = conditions: tumor cells implanted intraperitoneally; cited from earlier work
# [3] = 200 mg/kg/day i.p., once a day for 5 days
# [4] = Mus musculus, Ehrlich, ip, 168 h, once a day for 5 days, read-out: Inhibition ratio
# [5] = Mus musculus, Ehrlich, ip, 168 h, 25 mg/kg/day i.p., once a day for 5 days, read-out: Inhibition ratio
# [6] = Mus musculus, Ehrlich, ip, 168 h, 100 mg/kg/day i.p., once a day for 5 days, read-out: Inhibition ratio
# [7] = Mus musculus, Ehrlich, ip, 168 h
# [8] = 120 h, read-out: ILS (Increase in Life Span)
# [9] = 1440 h, read-out: 60-day survivors (mice survived for 60 days/mice used) (converted)
SMILES,MTD at 168 h [1] [mg/kg/day],"Toxic (number of mice died/number of mice used) [2, 3]",Therapeutic index (MTD/MED) [2],"inhibition in vivo at 0.19 mg/kg [2, 4] [%]","inhibition in vivo at 0.39 mg/kg [2, 4] [%]","inhibition in vivo at 0.78 mg/kg [2, 4] [%]","inhibition in vivo at 1.56 mg/kg [2, 4] [%]","inhibition in vivo at 6.25 mg/kg [2, 4] [%]","inhibition in vivo at 25 mg/kg [2, 5] [%]","inhibition in vivo at 100 mg/kg [2, 6] [%]","minimal effective dose [2, 7] [mg/kg/day]",ILS at 12.5 mg/kg (Leukemia L-1210; [8]) [%],ILS at 25 mg/kg (Leukemia L-1210; [8]) [%],ILS at 50 mg/kg (Leukemia L-1210; [8]) [%],responders at 12.5 mg/kg (Leukemia L-1210; [9]) [%],responders at 25 mg/kg (Leukemia L-1210; [9]) [%],responders at 50 mg/kg (Leukemia L-1210; [9]) [%],"inhibition in vivo at 3.12 mg/kg [2, 4] [%]",other results
"COCCCN(C(=O)N(CCCl)N=O)C1OC[C@@H](O)[C@@H](O)[C@@H]1O (stereo partly drawn) [Compound 7, 1-(2-chloroethyl)-1-nitroso-3-(3-methoxy-n-propyl)-3-(D-arabinopyranosyl)urea]",100,5/5,128,23.2,73.2,100,100,100,100,100,0.78,> 215,> 641,> 641,25,100,100,–,"therapeutic index (M.T.D./M.E.D.) relative to that of GANU ([2]; Ehrlich ascites tumor, greater than that of GANU): 4 times; ILS at 3.12 mg/kg (Leukemia L-1210; 120 h, 3.12 mg/kg/day i.p., read-out: ILS (Increase in Life Span)): 66.7%; responders at 3.12 mg/kg (Leukemia L-1210; 1440 h, 3.12 mg/kg/day i.p., read-out: 60-day survivors (mice survived for 60 days/mice used)): 0%"
"COCC(C)N(C(=O)N(CCCl)N=O)C1O[C@H](CO)[C@H](O)[C@H](O)[C@H]1O (stereo partly drawn) [Compound 8, 1-(2-chloroethyl)-1-nitroso-3-(1-methyl-2-methoxy-ethyl)-3-(D-galactopyranosyl)urea]",100,5/5,64,–,18.4,65.8,100,100,100,100,1.56,158,> 496,> 722,0,50,100,–,–
"COCCN(C(=O)N(CCCl)N=O)C1O[C@H](CO)[C@@H](O)[C@H]1O (stereo partly drawn) [Compound 9, 1-(2-chloroethyl)-1-nitroso-3-(2-methoxyethyl)-3-(D-ribofuranosyl)urea]",50,–,64,20,62,100,–,–,–,–,0.78,> 414,> 757,> 757,50,100,100,100,"Toxic (number of mice died/number of mice used) ([2]; 100 mg/kg/day i.p., once a day for 5 days): 3/5; inhibition in vivo at 12.5 mg/kg ([2]; Mus musculus, Ehrlich, ip, 168 h, 12.5 mg/kg/day i.p., once a day for 5 days, read-out: Inhibition ratio): 100%; inhibition in vivo at 50 mg/kg ([2]; Mus musculus, Ehrlich, ip, 168 h, 50 mg/kg/day i.p., once a day for 5 days, read-out: Inhibition ratio): 100%; ILS at 1.56 mg/kg (Leukemia L-1210; 120 h, 1.56 mg/kg/day i.p., read-out: ILS (Increase in Life Span)): 40%; ILS at 6.25 mg/kg (Leukemia L-1210; 120 h, 6.25 mg/kg/day i.p., read-out: ILS (Increase in Life Span)): > 243%; responders at 1.56 mg/kg (Leukemia L-1210; 1440 h, 1.56 mg/kg/day i.p., read-out: 60-day survivors (mice survived for 60 days/mice used)): 0%; responders at 6.25 mg/kg (Leukemia L-1210; 1440 h, 6.25 mg/kg/day i.p., read-out: 60-day survivors (mice survived for 60 days/mice used) (converted)): 25%"
"COCCCN(C(=O)N(CCCl)N=O)C1O[C@H](CO)[C@@H](O)[C@H](O)[C@H]1O (stereo partly drawn) [Compound 12, 1-(2-chloroethyl)-1-nitroso-3-(3-methoxy-n-propyl)-3-(D-glucopyranosyl)urea]",100,5/5,32,–,10,34,90,100,100,100,3.12,–,> 304,> 757,0,25,100,100,–
"O=NN(CCCl)C(=O)N[C@@H]1O[C@H](CO)[C@@H](O)[C@H](O)[C@H]1O [GANU, 1-(2-chloroethyl)-1-nitroso-3-(D-glucopyranosyl)urea, reference compound]",12.5,–,–,79.2,100,100,–,–,–,–,–,–,–,–,–,–,–,100,"life span of mice implanted with L-1210 (lymphoid leukemia L-1210): increase the life span; Toxic (number of mice died/number of mice used) ([2]; 25 mg/kg/day i.p., once a day for 5 days): 5/5; inhibition in vivo at 0.09 mg/kg ([2]; Mus musculus, Ehrlich, ip, 168 h, 0.09 mg/kg/day i.p., once a day for 5 days, read-out: Inhibition ratio): 4.2%; inhibition in vivo at 1.25 mg/kg ([2]; Mus musculus, Ehrlich, ip, 168 h, 1.25 mg/kg/day i.p., once a day for 5 days, read-out: Inhibition ratio): 100%"
